Laboratory results from patent publication US5344780A, “Method for determining indole compounds associated with boar taint in pork as well as a sample container to be used in the method” (priority 1990, dated 1994).
Values joined by “and” are separate entries in the source; they are usually repeats but may differ in a detail not shown here. Identical values can stand only once.

Assay: HPLC-analysis of extracted lard with heating (Example 1; also reproducibility test)
Design: species or system pig
Description: The present Example illustrates the extraction on the entire sample of lard and the determination of indole and skatole by HPLC.
A sample of lard of 5 g is taken subcutaneously from the occipital region of a carcass. The sample is placed in a container and heated at 80° C. for 10 minutes in microwave oven in order to melt the fat. An amount of 5 ml of methanol is then added to the sample which is shaken, whereupon the sample is extracted for 10 minutes. Subsequently, the sample is filtered to remove the fat and connective tissue and analyzed by HPLC under the following conditions:
HPLC-apparatus: Merck HPLC with fluorescence detector and autosampler,
Eluant: water:methanol (20:80) (volume:volume)
Fluorescence detector: excitation wavelength=285 nm, emission wavelength=340 nm
Column: Lichrocart 250-4, Lichrospher 100 RP18, 5 micron, reverse phase
Injection volume: 20 microliter,
Detection limit: 5 ppb (0,005 ppm) in solution […]
The samples were such analyzed 10 times.

For `Cc1c[nH]c2ccccc12` [Skatole, skatole], the “ppb skatole at HPLC-analysis, overall average” value (Table 2, 4 samples, n = 40) was 48.47 ppb, the “ppb skatole at HPLC-analysis, highest” value (Table 2, samples 1-4) was 50.00 ppb and 50.93 ppb and 52.80 ppb and 51.87 ppb and the “ppb skatole at HPLC-analysis, lowest” value (Table 2, samples 1-4) was 44.13 ppb and 43.87 ppb and 49.07 ppb. The “ppb skatole at HPLC-analysis, average per sample” value (Table 2, samples 1-4, 10 analyses each) was 47.61 ppb and 47.63 ppb and 50.67 ppb and 47.96 ppb, the “ppb skatole at HPLC-analysis, overall average” value (Table 3, 3 samples, n = 30) was 71.38 ppb and the “ppb skatole at HPLC-analysis” value (Table 3, sample 1, analyses 1-10) was 72.00 ppb and 69.33 ppb and 74.67 ppb and 77.33 ppb. The “ppb skatole at HPLC-analysis” value (Table 3, sample 2, analyses 1-10) was 74.67 ppb and 69.33 ppb and 66.67 ppb and 72.00 ppb, the “ppb skatole at HPLC-analysis” value (Table 3, sample 3, analyses 1-10) was 72.00 ppb and 69.33 ppb and 66.67 ppb and the “ppb skatole at HPLC-analysis, highest” value (Table 3, samples 1-3) was 77.33 ppb and 74.67 ppb and 72.00 ppb. The “ppb skatole at HPLC-analysis, lowest” value (Table 3, samples 1-3) was 69.33 ppb and 66.67 ppb and the “ppb skatole at HPLC-analysis, average per sample” value (Table 3, samples 1-3, 10 analyses each) was 73.60 ppb and 70.13 ppb and 70.40 ppb.
